According to the kinase profiling compilation of Christmann-Franck et al. (2016):

What was measured:
Test in all cases: radiometric filter-binding kinase assay, Kinase HotSpot
Conditions in all cases: compound 0.5 µM; ATP 10 µM
MET (human) = MET (human) (UniProt P08581)
SLK (human) = SLK (human) (UniProt Q9H2G2)
MUSK (human) = MUSK (human) (UniProt O15146)
PIM1 (human) = PIM1 (human) (UniProt P11309)
DYRK3 (human) = DYRK3 (human) (UniProt O43781)
MARK1 (human) = MARK1 (human) (UniProt Q9P0L2)
TTK (human) = TTK (human) (UniProt P33981)
NEK7 (human) = NEK7 (human) (UniProt Q8TDX7)
PRKG2 (human) = PRKG2 (human) (UniProt Q13237)
MST4 (human) = MST4 (human) (UniProt Q9P289)
CAMK2A (human) = CAMK2A (human) (UniProt Q9UQM7)
PTK2 (human) = PTK2 (human) (UniProt Q05397)
FYN (human) = FYN (human) (UniProt P06241)
NUAK2 (human) = NUAK2 (human) (UniProt Q9H093)
RPS6KA6 KD1 KD2 (human) = RPS6KA6 KD1 KD2 (human) (UniProt Q9UK32)
OXSR1 (human) = OXSR1 (human) (UniProt O95747)
MAP4K5 (human) = MAP4K5 (human) (UniProt Q9Y4K4)
CDC42BPB (human) = CDC42BPB (human) (UniProt Q9Y5S2)
RIPK2 (human) = RIPK2 (human) (UniProt O43353)
SRPK3 (human) = SRPK3 (human) (UniProt Q9UPE1)
INSR (human) = INSR (human) (UniProt P06213)
HCK (human) = HCK (human) (UniProt P08631)
EPHA8 (human) = EPHA8 (human) (UniProt P29322)
NTRK3 (human) = NTRK3 (human) (UniProt Q16288)
EPHA3 (human) = EPHA3 (human) (UniProt P29320)
PRKX (human) = PRKX (human) (UniProt P51817)
TGFBR2 (human) = TGFBR2 (human) (UniProt P37173)
CAMK2G (human) = CAMK2G (human) (UniProt Q13555)
STK24 (human) = STK24 (human) (UniProt Q9Y6E0)
NEK6 (human) = NEK6 (human) (UniProt Q9HC98)
MAPK9 (human) = MAPK9 (human) (UniProt P45984)
NEK1 (human) = NEK1 (human) (UniProt Q96PY6)
MATK (human) = MATK (human) (UniProt P42679)
FGFR1 (human) = FGFR1 (human) (UniProt P11362)
EPHA2 (human) = EPHA2 (human) (UniProt P29317)
PRKCB1 (human) = PRKCB1 (human) (UniProt P05771)
IKBKE (human) = IKBKE (human) (UniProt Q14164)
ADRBK2 (human) = ADRBK2 (human) (UniProt P35626)
PTK6 (human) = PTK6 (human) (UniProt Q13882)
PAK2 (human) = PAK2 (human) (UniProt Q13177)
CAMK4 (human) = CAMK4 (human) (UniProt Q16566)
CSNK1G2 (human) = CSNK1G2 (human) (UniProt P78368)

EPHA2 (human), sequence (P29317 whole entry, looked up): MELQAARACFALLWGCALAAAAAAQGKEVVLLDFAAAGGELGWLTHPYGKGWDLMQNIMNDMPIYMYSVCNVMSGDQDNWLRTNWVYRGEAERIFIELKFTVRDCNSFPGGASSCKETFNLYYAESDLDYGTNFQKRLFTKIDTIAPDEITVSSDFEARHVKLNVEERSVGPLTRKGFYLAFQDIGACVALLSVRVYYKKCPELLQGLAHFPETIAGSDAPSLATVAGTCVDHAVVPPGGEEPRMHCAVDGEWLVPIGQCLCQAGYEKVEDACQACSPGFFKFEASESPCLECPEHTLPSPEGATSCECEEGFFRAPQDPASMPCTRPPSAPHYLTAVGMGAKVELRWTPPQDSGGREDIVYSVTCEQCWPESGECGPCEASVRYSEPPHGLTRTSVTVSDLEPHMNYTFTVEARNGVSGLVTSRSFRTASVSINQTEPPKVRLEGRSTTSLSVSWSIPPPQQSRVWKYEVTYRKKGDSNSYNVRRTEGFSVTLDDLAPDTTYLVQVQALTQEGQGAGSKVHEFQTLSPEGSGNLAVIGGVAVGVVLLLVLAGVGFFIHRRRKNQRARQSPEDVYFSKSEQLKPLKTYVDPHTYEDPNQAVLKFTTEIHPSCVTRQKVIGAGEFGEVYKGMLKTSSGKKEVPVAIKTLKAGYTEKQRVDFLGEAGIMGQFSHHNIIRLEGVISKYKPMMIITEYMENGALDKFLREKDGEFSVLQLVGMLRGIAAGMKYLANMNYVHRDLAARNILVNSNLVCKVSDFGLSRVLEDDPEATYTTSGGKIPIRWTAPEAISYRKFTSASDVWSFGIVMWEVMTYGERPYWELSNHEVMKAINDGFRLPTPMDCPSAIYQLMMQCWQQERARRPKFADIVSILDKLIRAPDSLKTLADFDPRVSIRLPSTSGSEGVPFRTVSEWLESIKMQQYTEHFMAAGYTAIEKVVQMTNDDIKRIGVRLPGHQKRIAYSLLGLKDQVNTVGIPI
TTK (human), sequence (P33981 whole entry, looked up): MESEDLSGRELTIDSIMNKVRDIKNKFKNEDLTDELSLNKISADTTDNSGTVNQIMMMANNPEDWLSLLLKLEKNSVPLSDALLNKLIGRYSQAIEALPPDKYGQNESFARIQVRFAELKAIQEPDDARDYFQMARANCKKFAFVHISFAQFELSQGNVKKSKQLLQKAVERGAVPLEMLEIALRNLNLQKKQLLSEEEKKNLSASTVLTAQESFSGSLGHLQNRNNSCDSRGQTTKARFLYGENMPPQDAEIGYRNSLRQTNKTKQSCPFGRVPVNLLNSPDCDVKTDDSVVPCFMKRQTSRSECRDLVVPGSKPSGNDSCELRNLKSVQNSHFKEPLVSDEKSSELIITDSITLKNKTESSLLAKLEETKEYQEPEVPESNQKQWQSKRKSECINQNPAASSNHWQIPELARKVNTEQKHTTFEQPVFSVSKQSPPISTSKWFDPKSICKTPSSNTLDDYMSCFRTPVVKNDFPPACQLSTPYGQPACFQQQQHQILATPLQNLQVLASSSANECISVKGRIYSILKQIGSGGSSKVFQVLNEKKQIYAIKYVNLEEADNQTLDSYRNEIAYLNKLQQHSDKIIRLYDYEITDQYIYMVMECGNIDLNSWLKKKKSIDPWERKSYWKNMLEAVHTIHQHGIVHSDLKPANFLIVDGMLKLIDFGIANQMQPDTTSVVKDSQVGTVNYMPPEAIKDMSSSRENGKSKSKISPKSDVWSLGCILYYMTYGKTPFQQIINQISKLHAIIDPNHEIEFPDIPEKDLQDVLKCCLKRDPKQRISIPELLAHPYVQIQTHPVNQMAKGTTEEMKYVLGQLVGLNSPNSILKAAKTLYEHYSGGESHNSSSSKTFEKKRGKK
EPHA3 (human), sequence (P29320 whole entry, looked up): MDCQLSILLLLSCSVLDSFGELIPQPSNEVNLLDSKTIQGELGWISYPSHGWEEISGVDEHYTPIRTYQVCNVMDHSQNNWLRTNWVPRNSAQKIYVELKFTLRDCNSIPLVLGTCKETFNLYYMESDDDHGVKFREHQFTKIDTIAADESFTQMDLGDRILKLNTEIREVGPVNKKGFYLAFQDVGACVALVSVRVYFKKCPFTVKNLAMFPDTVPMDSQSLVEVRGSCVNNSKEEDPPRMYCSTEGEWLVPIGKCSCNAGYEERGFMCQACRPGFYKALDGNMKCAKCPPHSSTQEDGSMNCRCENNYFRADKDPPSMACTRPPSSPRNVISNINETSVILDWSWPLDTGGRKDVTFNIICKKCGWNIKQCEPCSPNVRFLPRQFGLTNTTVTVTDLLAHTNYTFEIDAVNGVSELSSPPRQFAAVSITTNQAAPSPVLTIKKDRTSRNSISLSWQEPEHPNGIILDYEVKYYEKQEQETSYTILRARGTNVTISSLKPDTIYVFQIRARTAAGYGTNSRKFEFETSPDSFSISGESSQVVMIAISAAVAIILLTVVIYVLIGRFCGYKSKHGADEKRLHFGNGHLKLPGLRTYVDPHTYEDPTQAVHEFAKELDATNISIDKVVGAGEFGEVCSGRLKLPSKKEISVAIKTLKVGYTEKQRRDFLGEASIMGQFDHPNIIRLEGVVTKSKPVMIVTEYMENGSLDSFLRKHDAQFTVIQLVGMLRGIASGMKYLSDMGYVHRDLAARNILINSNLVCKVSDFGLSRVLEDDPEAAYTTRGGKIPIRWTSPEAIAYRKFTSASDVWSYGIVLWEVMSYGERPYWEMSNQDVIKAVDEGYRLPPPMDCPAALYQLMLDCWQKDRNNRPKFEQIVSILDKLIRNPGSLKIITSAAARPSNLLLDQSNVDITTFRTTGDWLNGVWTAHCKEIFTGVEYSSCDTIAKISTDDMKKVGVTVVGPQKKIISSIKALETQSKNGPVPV
CAMK4 (human), sequence (Q16566 whole entry, looked up): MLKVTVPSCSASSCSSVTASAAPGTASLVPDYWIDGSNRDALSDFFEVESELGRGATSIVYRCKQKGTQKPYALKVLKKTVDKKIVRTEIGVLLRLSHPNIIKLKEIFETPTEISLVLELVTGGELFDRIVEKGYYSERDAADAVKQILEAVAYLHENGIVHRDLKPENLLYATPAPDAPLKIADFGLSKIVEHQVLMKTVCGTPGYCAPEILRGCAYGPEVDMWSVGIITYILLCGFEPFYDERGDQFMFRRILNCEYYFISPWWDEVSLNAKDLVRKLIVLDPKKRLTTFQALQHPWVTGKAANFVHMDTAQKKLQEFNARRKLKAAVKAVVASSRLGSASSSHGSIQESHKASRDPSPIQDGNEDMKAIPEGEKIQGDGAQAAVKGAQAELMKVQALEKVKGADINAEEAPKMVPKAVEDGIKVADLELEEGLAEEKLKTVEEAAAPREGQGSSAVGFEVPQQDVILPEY
OXSR1 (human), sequence (O95747 whole entry, looked up): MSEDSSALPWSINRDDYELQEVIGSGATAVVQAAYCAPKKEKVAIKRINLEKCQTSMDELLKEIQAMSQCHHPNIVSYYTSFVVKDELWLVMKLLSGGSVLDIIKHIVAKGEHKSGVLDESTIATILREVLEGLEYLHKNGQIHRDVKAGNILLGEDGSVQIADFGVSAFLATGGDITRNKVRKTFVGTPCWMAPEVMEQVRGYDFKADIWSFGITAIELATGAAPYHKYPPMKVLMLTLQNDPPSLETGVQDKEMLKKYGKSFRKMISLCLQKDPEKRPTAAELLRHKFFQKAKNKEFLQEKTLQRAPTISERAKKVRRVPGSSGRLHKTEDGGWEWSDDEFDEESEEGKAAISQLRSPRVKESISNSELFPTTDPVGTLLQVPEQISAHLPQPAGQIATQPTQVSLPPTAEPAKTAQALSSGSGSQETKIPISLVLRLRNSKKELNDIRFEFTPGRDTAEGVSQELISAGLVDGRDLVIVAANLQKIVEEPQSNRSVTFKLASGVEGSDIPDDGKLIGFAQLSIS
CAMK2A (human), sequence (Q9UQM7 whole entry, looked up): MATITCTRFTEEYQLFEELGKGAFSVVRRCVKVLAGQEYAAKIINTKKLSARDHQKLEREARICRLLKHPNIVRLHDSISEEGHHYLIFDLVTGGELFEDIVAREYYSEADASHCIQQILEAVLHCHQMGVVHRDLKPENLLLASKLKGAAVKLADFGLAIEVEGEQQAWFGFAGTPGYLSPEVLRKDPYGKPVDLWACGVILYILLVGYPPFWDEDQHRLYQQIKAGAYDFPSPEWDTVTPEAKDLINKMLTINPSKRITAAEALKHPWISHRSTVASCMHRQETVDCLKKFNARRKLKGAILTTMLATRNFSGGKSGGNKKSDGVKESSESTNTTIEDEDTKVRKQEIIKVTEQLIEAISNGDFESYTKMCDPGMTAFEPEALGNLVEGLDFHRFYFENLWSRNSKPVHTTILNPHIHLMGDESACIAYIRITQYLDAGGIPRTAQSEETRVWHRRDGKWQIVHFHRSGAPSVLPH
TGFBR2 (human), sequence (P37173 whole entry, looked up): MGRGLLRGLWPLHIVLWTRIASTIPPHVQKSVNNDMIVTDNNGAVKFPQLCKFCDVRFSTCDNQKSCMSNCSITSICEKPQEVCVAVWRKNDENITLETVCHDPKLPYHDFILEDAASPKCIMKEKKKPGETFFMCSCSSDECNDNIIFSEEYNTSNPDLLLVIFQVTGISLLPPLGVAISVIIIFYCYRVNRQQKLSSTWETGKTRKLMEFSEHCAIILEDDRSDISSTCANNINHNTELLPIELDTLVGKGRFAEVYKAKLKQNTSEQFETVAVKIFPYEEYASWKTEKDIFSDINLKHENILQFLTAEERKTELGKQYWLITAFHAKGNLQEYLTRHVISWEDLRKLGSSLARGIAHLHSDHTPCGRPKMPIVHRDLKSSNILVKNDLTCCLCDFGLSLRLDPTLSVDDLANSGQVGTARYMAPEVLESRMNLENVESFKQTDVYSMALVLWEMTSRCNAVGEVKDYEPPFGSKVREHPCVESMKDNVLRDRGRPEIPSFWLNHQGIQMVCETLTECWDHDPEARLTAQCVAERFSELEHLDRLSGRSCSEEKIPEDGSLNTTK

What does the source list for `O=C1NC(=O)/C(=C/c2ccc3c(c2)OC(F)(F)O3)S1`?
residual activity (MET (human)): 96.2%; residual activity (SLK (human)): 98.3%; residual activity (MUSK (human)): 70.9%; residual activity (PIM1 (human)): 35.9%; residual activity (DYRK3 (human)): 100%; residual activity (MARK1 (human)): 97.2%; residual activity (TTK (human)): 102%; residual activity (NEK7 (human)): 105%; residual activity (PRKG2 (human)): 104%; residual activity (MST4 (human)): 86.8%; residual activity (CAMK2A (human)): 96.8%; residual activity (PTK2 (human)): 94.9%; residual activity (FYN (human)): 96%; residual activity (NUAK2 (human)): 74.8%; residual activity (RPS6KA6 KD1 KD2 (human)): 96.5%; residual activity (OXSR1 (human)): 97.1%; residual activity (MAP4K5 (human)): 88.1%; residual activity (CDC42BPB (human)): 96.4%; residual activity (RIPK2 (human)): 88.2%; residual activity (SRPK3 (human)): 95.4%; residual activity (INSR (human)): 106%; residual activity (HCK (human)): 89.8%; residual activity (EPHA8 (human)): 93.8%; residual activity (NTRK3 (human)): 98%; residual activity (EPHA3 (human)): 97.6%; residual activity (PRKX (human)): 101%; residual activity (TGFBR2 (human)): 107%; residual activity (CAMK2G (human)): 102%; residual activity (STK24 (human)): 91.9%; residual activity (NEK6 (human)): 113%; residual activity (MAPK9 (human)): 90.9%; residual activity (NEK1 (human)): 79.6%; residual activity (MATK (human)): 93.2%; residual activity (FGFR1 (human)): 94.3%; residual activity (EPHA2 (human)): 96.3%; residual activity (PRKCB1 (human)): 97.7%; residual activity (IKBKE (human)): 101%; residual activity (ADRBK2 (human)): 102%; residual activity (PTK6 (human)): 94.8%; residual activity (PAK2 (human)): 99.9%; residual activity (CAMK4 (human)): 101%; residual activity (CSNK1G2 (human)): 84.5%

How did the residual activity (MET (human)) turn out when `CC#CC(=O)Nc1cc2c(Nc3ccc(F)c(Cl)c3)ncnc2cn1` was run?
Its residual activity is 96.3%.

What about the residual activity (SLK (human)) of the same compound?
The residual activity was 93.6%.

What about the residual activity (MUSK (human)) of the same compound?
Its residual activity is 79.6%.

What about the residual activity (PIM1 (human)) of the same compound?
The residual activity was 98.6%.

What about the residual activity (DYRK3 (human)) of the same compound?
Its residual activity is 101%.

What about the residual activity (MARK1 (human)) of the same compound?
Its residual activity is 98.2%.

And the residual activity (TTK (human))?
Its residual activity is 104%.

What about the residual activity (NEK7 (human)) of the same compound?
The residual activity was 98.2%.

What about the residual activity (PRKG2 (human)) of the same compound?
The residual activity was 105%.

What about the residual activity (MST4 (human)) of the same compound?
The residual activity was 103%.

And the residual activity (CAMK2A (human))?
The residual activity was 108%.

What about the residual activity (PTK2 (human)) of the same compound?
Its residual activity is 102%.

And the residual activity (FYN (human))?
The residual activity was 95.8%.

What about the residual activity (NUAK2 (human)) of the same compound?
Its residual activity is 95.4%.

What about the residual activity (RPS6KA6 KD1 KD2 (human)) of the same compound?
Its residual activity is 95.3%.

What about the residual activity (OXSR1 (human)) of the same compound?
The residual activity was 109%.

And the residual activity (MAP4K5 (human))?
Its residual activity is 100%.

What about the residual activity (CDC42BPB (human)) of the same compound?
The residual activity was 96.4%.

What about the residual activity (RIPK2 (human)) of the same compound?
The residual activity was 38.7%.

What about the residual activity (SRPK3 (human)) of the same compound?
The residual activity was 101%.

What about the residual activity (INSR (human)) of the same compound?
The residual activity was 99.6%.

What about the residual activity (HCK (human)) of the same compound?
The residual activity was 92.2%.

And the residual activity (EPHA8 (human))?
The residual activity was 100%.

What about the residual activity (NTRK3 (human)) of the same compound?
The residual activity was 95.3%.

What about the residual activity (EPHA3 (human)) of the same compound?
Its residual activity is 99.8%.

And the residual activity (PRKX (human))?
The residual activity was 103%.

And the residual activity (TGFBR2 (human))?
The residual activity was 123%.

What about the residual activity (CAMK2G (human)) of the same compound?
The residual activity was 97.7%.

And the residual activity (STK24 (human))?
Its residual activity is 107%.

What about the residual activity (NEK6 (human)) of the same compound?
Its residual activity is 97.5%.

What about the residual activity (MAPK9 (human)) of the same compound?
The residual activity was 91.8%.

What about the residual activity (NEK1 (human)) of the same compound?
Its residual activity is 105%.

What about the residual activity (MATK (human)) of the same compound?
The residual activity was 95.8%.

And the residual activity (FGFR1 (human))?
The residual activity was 91.1%.

And the residual activity (EPHA2 (human))?
The residual activity was 103%.

What about the residual activity (PRKCB1 (human)) of the same compound?
The residual activity was 97.4%.

What about the residual activity (IKBKE (human)) of the same compound?
The residual activity was 98.9%.

What about the residual activity (ADRBK2 (human)) of the same compound?
The residual activity was 103%.

What about the residual activity (PTK6 (human)) of the same compound?
Its residual activity is 56.8%.

What about the residual activity (PAK2 (human)) of the same compound?
Its residual activity is 105%.

What about the residual activity (CAMK4 (human)) of the same compound?
The residual activity was 97.4%.

And the residual activity (CSNK1G2 (human))?
Its residual activity is 94.9%.

Which results are given for `Cc1ccc(NC2=CC(=O)c3sc(C)nc3C2=O)cc1`?
residual activity (MET (human)): 99.7%; residual activity (SLK (human)): 80.6%; residual activity (MUSK (human)): 89.1%; residual activity (PIM1 (human)): 96.8%; residual activity (DYRK3 (human)): 96.2%; residual activity (MARK1 (human)): 89.6%; residual activity (TTK (human)): 98.9%; residual activity (NEK7 (human)): 96.9%; residual activity (PRKG2 (human)): 60.8%; residual activity (MST4 (human)): 86.6%; residual activity (CAMK2A (human)): 101%; residual activity (PTK2 (human)): 102%; residual activity (FYN (human)): 95.6%; residual activity (NUAK2 (human)): 105%; residual activity (RPS6KA6 KD1 KD2 (human)): 73.4%; residual activity (OXSR1 (human)): 86.6%; residual activity (MAP4K5 (human)): 96.9%; residual activity (CDC42BPB (human)): 109%; residual activity (RIPK2 (human)): 95.2%; residual activity (SRPK3 (human)): 98.2%; residual activity (INSR (human)): 92.6%; residual activity (HCK (human)): 94.4%; residual activity (EPHA8 (human)): 94.1%; residual activity (NTRK3 (human)): 94%; residual activity (EPHA3 (human)): 96.6%; residual activity (PRKX (human)): 96.8%; residual activity (TGFBR2 (human)): 77.6%; residual activity (CAMK2G (human)): 90.4%; residual activity (STK24 (human)): 82.8%; residual activity (NEK6 (human)): 106%; residual activity (MAPK9 (human)): 96.5%; residual activity (NEK1 (human)): 76.5%; residual activity (MATK (human)): 88.3%; residual activity (FGFR1 (human)): 85.3%; residual activity (EPHA2 (human)): 102%; residual activity (PRKCB1 (human)): 95.7%; residual activity (IKBKE (human)): 102%; residual activity (ADRBK2 (human)): 84.5%; residual activity (PTK6 (human)): 89.2%; residual activity (PAK2 (human)): 104%; residual activity (CAMK4 (human)): 98.5%; residual activity (CSNK1G2 (human)): 99.9%
